Assay [1] concerns peroxisome proliferator-activated receptor α (PPARα). The experiment in a line: PPARα gene expression in muscle tissue of db/db mouse model (RT-PCR). Type of assay: in vivo. The following applies: muscle tissue of db/db mice, 2.5 mg/kg i.p. daily, 8 weeks. On the procedure: (§1) The obesity-improving effect of a peptide was confirmed by inducing body weight gain in an animal model in which diabetes was induced due to the defect in a leptin receptor. Specifically, C57BLKS/J-db/db 5-week-old male mice were purchased from the Central Laboratory Animal Inc., provided with a normal diet for one week, and used after an acclimation period. The breeding environment was maintained at 18 to 24° C. and a humidity of 50 to 60%, and during the acclimation period and the experimental period, free feeding was implemented with free access to normal feed and water.
(§2) The mice that underwent the acclimation period were divided into a control and a peptide-treated group. The control group was administered PBS, and the peptide-treated group was administered Peptide No. 7 or 8 (2.5 mg/kg) intraperitoneally every day for a total of 8 weeks.
(§3) As a result of RT-PCR, it was confirmed that, by the treatment of Peptide No. 7 or 8, the expression of adipocyte protein 2 (AP2) and CCAAT enhancer binding protein α (C/EBPα) genes, which are involved in lipid accumulation, was reduced, and the expression of a peroxisome proliferator-activated receptor α (PPARα) gene, involved in fatty acid oxidation, was increased. […]

The test system of assay [2] is CCAAT enhancer binding protein α (C/EBPα). The experiment in a line: C/EBPα gene expression in muscle tissue of db/db mouse model (RT-PCR). Type of assay: in vivo. The following applies: muscle tissue of db/db mice, 2.5 mg/kg i.p. daily, 8 weeks. On the procedure: as §1, §2, §3
Assay [3] deals with adipocyte protein 2 (AP2). The experiment in a line: AP2 gene expression in muscle tissue of db/db mouse model (RT-PCR). Type of assay: in vivo. The following applies: muscle tissue of db/db mice, 2.5 mg/kg i.p. daily, 8 weeks. As to the method: as §1, §2, §3
For the next assay, the system named is S6. The experiment in a line: S6 phosphorylation in L6 skeletal muscle cells (Western blot). Type of assay: cell-based. The following applies: 100 nM, 1 hour; for phosphorylation of S6 (in words): FIG. 9. As to the method: (§4) The effect of the peptide of the present invention on muscles was confirmed. After culturing L6 skeletal muscle cells in a 6-well plate, the cells were starved with 0.5% FBS. Afterward, 100 nM of each peptide was treated for 1 hour, and proteins were collected and subjected to Western blot.
Background: In western blotting, separated proteins are transferred to a membrane and probed.

For assay [4], the system named is Muscle RING Finger-1 (Murf-1). The experiment in a line: Murf-1 gene expression in muscle tissue of db/db mouse model (RT-PCR). Type of assay: in vivo. The following applies: muscle tissue of db/db mice, 2.5 mg/kg i.p. daily, 8 weeks. As to the method:
as §1, §2, §3

For another assay, the system named is FoxO1. Kind of assay: FoxO1 phosphorylation and total FoxO1 in L6 skeletal muscle cells (Western blot). The assay is classed as cell-based. The following applies: 100 nM, 1 hour. As to the method:
as §4

As to “VDRGAGSIREAGGAFGKREQAEEERYFR (listed as Homo sapiens) [No. 8]”, the “change in PPARα gene expression” value in assay [1] was “+12.9%”. Moreover, the “change in C/EBPα gene expression” value in assay [2] is reported as −45.5%. Besides, the “change in AP2 gene expression” value in assay [3] is reported as −54.7%. Further, the “increase of phosphorylation of the S6 protein” value (“increase” for short) in the assay with S6 is 414%. The “change in Murf-1 gene expression” value in assay [4] was −36.0%.

As to “REAGGAFGKR (listed as Homo sapiens) [No. 3]”, the “phosphorylation of S6 (in words)” value with S6 is “increased”.

In the case of “YFRAQSREQLAALKKHH (listed as Homo sapiens) [No. 6]”, in the assay with S6, the “phosphorylation of S6 (in words)” value was “increased”.

For the substance YFR (listed as Homo sapiens) [No. 1], in the assay on FoxO1, the “expression level of total FoxO1” value is reported as “decreased” and the “phosphorylation of FoxO1” value was “increased”. Also, in the assay with S6, the “increase” value stood at 188%.

Turning to “AGSIREAGGAFGKREQAEEERYFR (listed as Homo sapiens) [No. 7]”, in assay [1], the “change in PPARα gene expression” value was “+94.1%”. Also, in assay [2], the “change in C/EBPα gene expression” value is given as −18.6%. The “change in AP2 gene expression” value in assay [3] is −52.5%. Besides, the “phosphorylation of S6 (in words)” value in the assay with S6 is given as “increased”. Further, the “change in Murf-1 gene expression” value in assay [4] is on record as −90.1%.

For “EQAEEERYFR (listed as Homo sapiens) [No. 4]”, in the assay on S6, the “increase” value turned out to be 224%.

“AQSREQLAALKK (listed as Homo sapiens) [No. 5]”: the “increase” value in the assay with S6 worked out at 494%.

For the substance “EQAEEER (listed as Homo sapiens) [No. 2]”, in the assay on S6, the “increase” value is reported as 365%.

For the origin of these results see patent US20240342238A1, “PEPTIDE HAVING OBESITY AND MUSCLE LOSS INHIBITORY ACTIVITIES, AND USE THEREOF” (Korea University Research and Business Foundation, priority 2021, published 2024).
